Experimental data as given in patent US4098995A, “Polygalactosido-sucrose Poly(H-)sulfate salts” (American Cyanamid Company, priority 1976, dated 1978).
Several values for one entry are separate records, joined by “and”; a condition that tells them apart may be missing. Equal entries are not always repeated. Structures can show the parent of a compound that is named as a salt.

Experiments:
[1] = system: shunt pathway; test: Test, Code 036 (C-Shunt inhibitor), lysis of fragile human erythrocytes via shunt pathway activated by cobra venom factor; type: cell-based; settings: serial two-fold dilution assay, higher well number indicates higher activity
Source text: (§1) An active inhibitor protects C2 from C1 and C4; (ii) Test, Code 035 (C3-C9 inhibitor) - This test determines the ability of the late components of human complement (C3-C9) to lyse EAC 142 in the presence of appropriate dilutions of the test compound. An active inhibitor protects EAC 142 from lysis by human C3-C9; (iii) Test, Code 036 (C-Shunt inhibitor) -- In this test human erythrocytes rendered fragile are lysed in autologous serum via the shunt pathway activated by cobra venom factor in the presence of appropriate dilutions of the test compound. Inhibition of the shunt pathway results in failure of lysis; (iv) Forssman Vasculitis Test -- Here, the well known complement dependent lesion, Forssman vasculitis, is produced in guinea pigs by intradermal injection of rabbit anti-Forssman antiserum. The lesion is measured in terms of diameter, edema and hemorrhage and the extent to which a combined index of these is inhibited by prior intraperitoneal injection of the test compound at 200 mg/kg is then reported, unless otherwise stated; (v) Forssman Shock Test -- Lethal shock is produced in guinea pigs by an i.v. injection of anti-Forssman antiserum and the harmonic mean death time of treated guinea pigs is compared with that of simultaneous controls; (vi) Complement Level Reduction Test -- In this test, the above dosed guinea pigs, or others, are bled for serum and the complement level is determined in undiluted serum by the capillary tube method of U.S. Pat. No. 3,876,376 and compared to undosed control guinea pigs; and (vii) Cap 50 Test -- Here, appropriate amounts of the test compound are added to a pool of guinea pig serum in vitro, after which the undiluted serum capillary tube assay referred to above is run. The concentration of compound inhibiting 50% is reported.
(§2) **Activity in wells, a serial dilution assay. Higher well numer indicates
(§3) higher activity. The serial dilutions are two-fold.

[2] = system: late components of human complement (C3-C9); test: Test, Code 035 (C3-C9 inhibitor), lysis of EAC 142 by late complement components; type: cell-based; settings: serial two-fold dilution assay; higher well number indicates higher activity
Source text: as §1, §2, §3

[3] = molecular target: activated human C1 (Homo sapiens, UniProt P09871); test: Test, Code 026 (C1 inhibitor); type: biochemical; settings: serial two-fold dilution assay, higher well number indicates higher activity
Source text: as §1, §2, §3

[4] = system: whole complement; test: Complement Level Reduction Test in dosed guinea pigs (serum whole complement, capillary tube assay); type: in vivo, guinea pig; settings: 200 mg/kg
[5] = literature; cited from earlier work
[6] = system: complement; test: Complement inhibiting activity, tests disclosed herein
[7] = system: complement; settings: literature; cited from earlier work

O=S(=O)(O)OC[C@H]1O[C@H](OC[C@H]2O[C@H](O[C@]3(COS(=O)(=O)O)O[C@H](COS(=O)(=O)O)[C@@H](OS(=O)(=O)O)[C@@H]3OS(=O)(=O)O)[C@H](OS(=O)(=O)O)[C@@H](OS(=O)(=O)O)[C@@H]2OS(=O)(=O)O)[C@H](OS(=O)(=O)O)[C@@H](OS(=O)(=O)O)[C@H]1OS(=O)(=O)O [Raffinose Poly(H-)sulfate Triethylamine Salt]
In Vitro Activity 036 [1]: N | In Vitro Activity 035 [2]: N | In Vitro Activity 026 (activity in wells) [3]: 10 wells and 9 wells

O=S(=O)(O)OC[C@H]1O[C@H](OC[C@H]2O[C@H](O[C@]3(COS(=O)(=O)O)O[C@H](COS(=O)(=O)O)[C@@H](OS(=O)(=O)O)[C@@H]3OS(=O)(=O)O)[C@H](OS(=O)(=O)O)[C@@H](OS(=O)(=O)O)[C@@H]2OS(=O)(=O)O)[C@H](OS(=O)(=O)O)[C@@H](OS(=O)(=O)O)[C@H]1OS(=O)(=O)O [Raffinose Poly(H--)sulfate Sodium Salt, Raffinose Poly(H-)sulfate Sodium Salt]
In Vitro Activity 036 ([1]; Sodium Salt): 1 wells | In Vitro Activity 026 (activity in wells) ([3]; Sodium Salt): 9 wells

O=S(=O)(O)OC[C@H]1O[C@H](OC[C@H]2O[C@H](OC[C@H]3O[C@H](O[C@]4(COS(=O)(=O)O)O[C@H](COS(=O)(=O)O)[C@@H](OS(=O)(=O)O)[C@@H]4OS(=O)(=O)O)[C@H](OS(=O)(=O)O)[C@@H](OS(=O)(=O)O)[C@@H]3OS(=O)(=O)O)[C@H](OS(=O)(=O)O)[C@@H](OS(=O)(=O)O)[C@H]2OS(=O)(=O)O)[C@H](OS(=O)(=O)O)[C@@H](OS(=O)(=O)O)[C@H]1OS(=O)(=O)O [Stachyose Poly(H--)sulfate Sodium Salt, Stachyose Poly(H-)sulfate Sodium Salt]
In Vitro Activity 036 ([1]; Sodium Salt): 4 wells and 2 wells | In Vitro Activity 035 [2]: N | In Vitro Activity 026 (activity in wells) ([3]; Sodium Salt): 13 wells and 11 wells | In Vivo Activity (Guinea Pig) Percent Inhibition ([4]; intraperitoneal, Time (Hours) 30): -47% | In Vivo Activity (Guinea Pig) Percent Inhibition ([4]; intraperitoneal, Time (Hours) 60): -56% | In Vivo Activity (Guinea Pig) Percent Inhibition ([4]; intraperitoneal, Time (Hours) 120): -65% | In Vivo Activity (Guinea Pig) Percent Inhibition ([4]; intravenous, Time (Hours) 2): -86% | In Vivo Activity (Guinea Pig) Percent Inhibition ([4]; intravenous, Time (Hours) 30): -93% | In Vivo Activity (Guinea Pig) Percent Inhibition ([4]; intravenous, Time (Hours) 120): -17%

O=S(=O)(O)OC[C@H]1O[C@H](OC[C@H]2O[C@H](OC[C@H]3O[C@H](O[C@]4(COS(=O)(=O)O)O[C@H](COS(=O)(=O)O)[C@@H](OS(=O)(=O)O)[C@@H]4OS(=O)(=O)O)[C@H](OS(=O)(=O)O)[C@@H](OS(=O)(=O)O)[C@@H]3OS(=O)(=O)O)[C@H](OS(=O)(=O)O)[C@@H](OS(=O)(=O)O)[C@H]2OS(=O)(=O)O)[C@H](OS(=O)(=O)O)[C@@H](OS(=O)(=O)O)[C@H]1OS(=O)(=O)O [Stachyose Poly(H--)sulfate Triethylamine Salt] [Stachyose Poly(H-)sulfate Triethylamine Salt]
In Vitro Activity 036 [1]: 2 wells | In Vitro Activity 035 [2]: N | In Vitro Activity 026 (activity in wells) [3]: 14 wells

O=S(=O)(O)OC[C@H]1O[C@H](OC[C@H]2O[C@H](OC[C@H]3O[C@H](O[C@]4(COS(=O)(=O)O)O[C@H](COS(=O)(=O)O)[C@@H](OS(=O)(=O)O)[C@@H]4OS(=O)(=O)O)[C@H](OS(=O)(=O)O)[C@@H](OS(=O)(=O)O)[C@@H]3OS(=O)(=O)O)[C@H](OS(=O)(=O)O)[C@@H](OS(=O)(=O)O)[C@H]2OS(=O)(=O)O)[C@H](OS(=O)(=O)O)[C@@H](OS(=O)(=O)O)[C@H]1OS(=O)(=O)O [Stachyose Poly(H--)sulfate Trimethylamine Salt] [Stachyose Poly(H-)sulfate Trimethylamine Salt]
In Vitro Activity 035 [2]: N | In Vitro Activity 026 (activity in wells) [3]: 11 wells and 12 wells

NCCCCCC(=O)O [epsilon-aminocaproic acid]
treatment of hereditary angioneurotic edema [5]: used with success

NC[C@H]1CC[C@H](C(=O)O)CC1 [tranexamic acid]
treatment of hereditary angioneurotic edema [5]: used with success

Stachyose trisulfate
complement inhibiting activity [6]: found lacking in complement inhibiting activity

heparin
complement inhibiting activity (reported) [7]: reported as having complement inhibiting activity

pentosan polysulfo ester
complement inhibiting activity (reported) [7]: reported as having complement inhibiting activity
